Source: patent US11591297B2, “Compound having PD-L1 expression-suppressing action” (TOHOKU UNIVERSITY, priority 2019, dated 2023)
pIC50: −log10 of the molar value.

System: Jurkat cells
Experiment: Caspase 3/7 assay: apoptosis of Jurkat cells co-cultured with IFN-γ-treated A549 cells (PD-1/PD-L1 binding)
Type: cell-based
Settings: Homo sapiens; for pIC50: Jurkat cells co-cultured with A549 cells pre-cultured with IFN-γ and test compound, read-out: IC50 (50% inhibition concentration of Caspase 3/7 activity)
Description: The supernatants of each culture liquid containing A549 cells expressing PD-L1 pre-cultured with the addition of IFN-γ or human acute T-cell leukemia cell-derived Jurkat cells expressing PD-1 pre-cultured with the addition of Phorbol 12-myristate 13-Acetate (hereinafter, referred to as “PMA”: Sigma Cat #1585) and phytohemagglutinin-L (hereinafter, referred to as “PHA-L”: Roche Cat #11249738001) were removed, the culture liquids were co-cultured in new medium. The Caspase 3/7 activity of the co-cultured Jurkat cells was measured, and the measured activity was used as an index of apoptosis. Each test compound was added into the A549 cell culture liquid during the pre-culture.
(1) A549 cells were suspended in DMEM medium at 1×10^5 cells/mL to prepare an A549 cell suspension, and the A549 cell suspension was dispensed into each well a 6 well plate in an amount of 3 mL.
(2) Separately, Jurkat cells were suspended in RPMI medium at 3×10^5 cells/mL to prepare a Jurkat cell suspension, and the Jurkat cell suspension was dispensed into a T25 flask in an amount of 5 mL.
(3) The 6-well plate of the above step (1) and the T25 flask of the above step (2) were incubated together in a CO2 incubator (at 37° C. and 5% CO2) for 24±2 hours.
(1) To 3 mL of the A549 cell culture liquid were added IFN-γ (25 ng/mL) and a test compound, and the cell culture liquid was continuously cultured. The 50 mmol/L solution of the test compound in DMSO was diluted to 100 times with DMEM medium, and then the diluted solution was added as test compound group in an amount of 3 μL, 6 μL or 12 μL (final concentration: 0.5 μmol/L, 1.0 μmol/L or 2 μmol/L). In the control group, DMSO diluted to 100 times with DMEM medium was added in an amount of 12 μL. (2) Separately, to the Jurkat cell culture liquid were added PMA (final concentration: 12.5 ng/mL) and PHA (final concentration: 250 ng/mL), and the cell culture liquid was continuously cultured. [Day 3]
Cells were separated from A549 cell culture liquid with Cell Dissociation Solution Non-enzymatic (Sigma Cat No. C5914-100ML), and the cell culture liquid was centrifuged at 300×g for 5 minutes and the supernatant thereof was removed, and then the cells were suspended in RPMI medium at 4×10^5 cells/mL to prepare an A549 cell suspension.
The Jurkat cell culture liquid was centrifuged at 300×g for 5 minutes and the supernatant thereof was removed, and then the cells therein were suspended in RPMI medium at 4×10^4 cells/mL to prepare a Jurkat cell suspension.
0.25 mL of the prepared A549 cell suspension and 0.25 mL of the prepared Jurkat cell suspension (the ratio of the number of the cells is 10:1) were added into each well in a 24-well plate. 0.25 mL of A549 cells and 0.25 mL of RPMI medium were mixed and the mixture was cultured at 37° C. and 5% CO2 to prepare an A549 blank containing only A549 cells which is not co-cultured with Jurkat cells. The PD-L1 expression in A549 cells after 2 days from IFN-γ treatment and the PD-1 expression in Jurkat cells stimulated with PMA and PHA were confirmed by staining the cells with anti-CD274-PC7 antibody (PD-L1) or anti-CD279-FITC antibody (PD-1, eBioscience Cat No. 11-9969-42) in a similar procedure to that of Test Example 2 and measuring the stained cells with a flow cytometer.
The cells were cultured under the following 6 conditions.
(IF−Comp−): Co-culture of A549 cells pre-cultured without the addition of IFN-γ and the test compound as well as Jurkat cells
(IF+Comp−): Co-culture of A549 cells pre-cultured with the addition of IFN-γ and no test compound as well as Jurkat cells
(IF+Comp+): Co-culture of A549 cells pre-cultured with the addition of IFN-γ and the test compound as well as Jurkat cells
(A:IF−Comp−): Culture of only […] A549 cells pre-cultured without the addition of IFN-γ and the test compound
(A:IF+Comp−): Culture of only A549 cells pre-cultured with the addition of IFN-γ and no test compound […]

Row | pIC50 | Compound | activity at 0.25 µM (Jurkat, 0.25 μM, control (DMSO) defined as 100%) [%] | activity at 0.5 µM (Jurkat, 0.5 μM, control (DMSO) defined as 100%) [%] | activity at 1 µM (Jurkat, 1 μM, control (DMSO) defined as 100%) [%]
1 | 5.96 | O=C(Nc1ccc(Oc2ccc(C(F)(F)F)cc2)cc1)C1CCCN(C(=O)c2ccc([N+](=O)[O-])cc2)C1 (stereo not shown) [Example 2, 1-(4-Nitrobenzoyl)-N-(4-(4-(trifluoromethyl)phenoxy)phenyl) piperidine-3-carboxamide] | – | – | –
2 | 6.06 | COc1cc(C(=O)N2CCCC(C(=O)Nc3ccc(Oc4ccc(C(F)(F)F)cc4)cc3)C2)ccc1O (stereo not shown) [Example 3, 1-(4-Hydroxy-3-methoxybenzoyl)-N-(4-(4-(trifluoromethyl)phenoxy)phenyl)piperidine-3-carboxamide] | – | – | –
3 | 6.28 | O=C(Nc1ccc(Oc2ccc(S(F)(F)(F)(F)F)cc2)cc1)C1CCCN(C(=O)c2ccc([N+](=O)[O-])cc2)C1 (stereo not shown) [Example 5, 1-(4-Nitrobenzoyl)-N-(4-(4-(pentafluorosulfanyl)phenoxy)phenyl)piperidine-3-carboxamide] | 81.5 | 55.3 | 32.1
4 | 6.13 | COc1cc(C(=O)N2CCCC(C(=O)Nc3ccc(Oc4ccc(S(F)(F)(F)(F)F)cc4)cc3)C2)ccc1O (stereo not shown) [Example 6, 1-(4-Hydroxy-3-methoxybenzoyl)-N-(4-(4-(pentafluorosulfanyl)phenoxy)phenyl)piperidine-3-carboxamide] | – | – | –
